We go through 21 compounds from the RepoRT retention time repository (doi:10.1016/j.jchromb.2020.122105).

Each structure is given as a SMILES string.

Common to all, as to conditions: stereoisomer not certain
Series [1] can be described thus: RP, Waters CORTECS T3, 100 × 2.1 mm, 2.7 µm, 0.3 mL/min, estimated dead time 0.73 min; A: water + 0.1% formic acid, pH 3; B: methanol + 0.1% formic acid, pH 3; gradient (min/%B) 0/5 5/5 25/100 30/100 30.1/5 35/5.
Series [2] in a line: RP, Waters CORTECS T3, 100 × 2.1 mm, 2.7 µm, 0.3 mL/min, estimated dead time 0.73 min; A: water + 0.1% formic acid, pH 3; B: methanol + 0.1% formic acid, pH 3; gradient (min/%B) 0/0 5/0 25/100 30/100 30.1/0 35/0.
The nature of series [3]: RP, Waters CORTECS T3, 100 × 2.1 mm, 2.7 µm, 0.1 mL/min, estimated dead time 2.2 min; A: water + 0.1% formic acid, pH 3; B: methanol + 0.1% formic acid, pH 3; gradient (min/%B) 0/0 1/0 6/5 30/100 35/100 35.1/0 40/0.
A short description of series [4]: RP, Waters CORTECS T3, 100 × 2.1 mm, 2.7 µm, 0.3 mL/min, estimated dead time 0.73 min; A: water + 0.1% formic acid, pH 3; B: methanol + 0.1% formic acid, pH 3; gradient (min/%B) 0/0 1/0 6/5 30/100 35/100 35.1/0 40/0.
Series [5] can be described thus: RP, Waters CORTECS T3, 100 × 2.1 mm, 2.7 µm, 0.3 mL/min, estimated dead time 0.73 min; A: water + 0.1% formic acid, pH 3; B: methanol + 0.1% formic acid, pH 3; gradient (min/%B) 0/5 5/5 25/95 25.1/100 35/100 35.1/5 45/5.
Series [6] is described as follows: RP, Waters ACQUITY UPLC BEH C18, 100 × 2.1 mm, 1.7 µm, 0.1 mL/min, estimated dead time 2.2 min; A: water + 0.1% formic acid, pH 3; B: methanol + 0.1% formic acid, pH 3; gradient (min/%B) 0/5 5/5 25/100 30/100 30.1/5 35/5.
The nature of series [7]: RP, Waters CORTECS T3, 100 × 2.1 mm, 2.7 µm, 0.2 mL/min, estimated dead time 1.1 min; A: water + 0.045% formic acid + 0.11% ammonium hydroxide, pH 7; B: methanol; gradient (min/%B) 0/5 5/5 25/95 25.1/100 35/100 35.1/5 45/5.
Series [8] is described as follows: RP, Waters ACQUITY UPLC BEH C18, 100 × 2.1 mm, 1.7 µm, 0.1 mL/min, estimated dead time 2.2 min; A: water + 0.045% formic acid + 0.11% ammonium hydroxide, pH 7; B: methanol; gradient (min/%B) 0/5 5/5 25/95 25.1/100 35/100 35.1/5 45/5.
Series [9] is described as follows: RP, Waters ACQUITY UPLC BEH C18, 100 × 2.1 mm, 1.7 µm, 0.2 mL/min, estimated dead time 1.1 min; A: water + 0.025% formic acid + 20 mM ammonium acetate + 0.055% ammonium hydroxide, pH 7; B: methanol; gradient (min/%B) 0/5 5/5 25/100 30/100 30.1/5 35/5.
Series [10] can be described thus: RP, Waters CORTECS T3, 100 × 2.1 mm, 2.7 µm, 0.1 mL/min, estimated dead time 2.2 min; A: water + 0.1% formic acid, pH 3; B: methanol + 0.1% formic acid, pH 3; gradient (min/%B) 0/5 5/5 25/95 25.1/100 35/100 35.1/5 45/5.
A short description of series [11]: RP, Waters CORTECS T3, 100 × 2.1 mm, 2.7 µm, 0.25 mL/min, estimated dead time 0.88 min; A: water + 0.1% formic acid, pH 3; B: methanol + 0.1% formic acid, pH 3; gradient (min/%B) 0/5 5/5 25/95 25.1/100 35/100 35.1/5 45/5.
A short description of series [12]: RP, Thermo Scientific Hypercarb, 150 × 2.1 mm, 5 µm, 0.1 mL/min, estimated dead time 3.3 min; A: water + 0.1% formic acid, pH 3; B: methanol + 0.1% formic acid, pH 3; gradient (min/%B) 0/5 5/5 20/100 35/100 35.1/5 45/5.
The nature of series [13]: RP, Waters CORTECS T3, 100 × 2.1 mm, 2.7 µm, 0.2 mL/min, estimated dead time 1.1 min; A: water + 0.1% formic acid, pH 3; B: methanol + 0.1% formic acid, pH 3; gradient (min/%B) 0/0 1/0 6/5 30/100 35/100 35.1/0 40/0.
The nature of series [14]: RP, Waters CORTECS T3, 100 × 2.1 mm, 2.7 µm, 0.15 mL/min, estimated dead time 1.5 min; A: water + 0.1% formic acid, pH 3; B: methanol + 0.1% formic acid, pH 3; gradient (min/%B) 0/0 1/0 6/5 30/100 35/100 35.1/0 40/0.
A short description of series [15]: RP, Waters CORTECS T3, 100 × 2.1 mm, 2.7 µm, 0.25 mL/min, estimated dead time 0.88 min; A: water + 0.1% formic acid, pH 3; B: methanol + 0.1% formic acid, pH 3; gradient (min/%B) 0/0 1/0 6/5 30/100 35/100 35.1/0 40/0.
The nature of series [16]: RP, Waters CORTECS T3, 100 × 2.1 mm, 2.7 µm, 0.2 mL/min, estimated dead time 1.1 min; A: water + 0.1% formic acid, pH 3; B: methanol + 0.1% formic acid, pH 3; gradient (min/%B) 0/0 1/0 6/5 30/100 35/100 35.1/0 40/0. The source holds these as a separate data set.
Series [17] in a line: RP, Waters ACQUITY UPLC BEH C18, 100 × 2.1 mm, 1.7 µm, 0.2 mL/min, estimated dead time 1.1 min; A: water + 0.1% formic acid, pH 3; B: methanol + 0.1% formic acid, pH 3; gradient (min/%B) 0/5 5/5 25/100 30/100 30.1/5 35/5.

For `CCCCCCCCC=CCCCCCCCC(=O)OCC(O)CO` (racemic) [1-OLEOYL-RAC-GLYCEROL], the LC retention time in series [1] was 24.6 min; in series [2], 24.8 min; in [3], 26.2 min; in series [4], 29 min; in series [5] it was 25.6 min; in [6] it was 29.3 min. The LC retention time was 26.2 min in series [7], 30.2 min in series [8] and 26.3 min in series [9].
For the compound `CCCCCCCCCCCCCC(=O)OCC(O)CO` (racemic) [RAC-GLYCEROL 1-MYRISTATE], the LC retention time in [6] is 28.2 min; in series [7], 25.4 min; in series [8], 29.1 min.
On to `Nc1ccccc1O` [2-AMINOPHENOL], for which the LC retention time in series [10] is 2.8 min.
Turning to `COc1cc(C(O)C(=O)O)ccc1O` (stereo unspecified) [3-METHOXY-4-HYDROXYMANDELATE], the LC retention time in series [11] was 2.78 min.
In the case of `COc1cc(CCN)ccc1O` [3-METHOXYTYRAMINE], the LC retention time in series [12] is 20.5 min; in series [7], 4.87 min; in [8], 9.22 min.
On to `Cn1cnc(=N)c2[nH]cnc21` [3-METHYLADENINE], for which the LC retention time in series [2] is 0.89 min; in [13] it was 1.34 min; in series [14], 1.78 min; in series [15], 1.09 min; in series [12] it was 24.5 min; in series [6] it was 2.69 min. In addition, the LC retention time in [7] was 3.8 min; in [8], 2.75 min; in [9], 3.62 min.
`Cn1cncc1CCN` [3-METHYLHISTAMINE]: the LC retention time was 4.64 min in [12], 1.73 min in series [7], 3.44 min in series [8] and 1.81 min in [9].
As for `O=C(O)Cc1c[nH]c2ccc(O)cc12` [5-HYDROXYINDOLEACETATE], the LC retention time is 8.56 min in [1]; 10 min in [2]; 11.5 min in series [13]; 10.1 min in [3]; 12.9 min in [14]; 10.1 min in [4]. Moreover, the LC retention time in series [15] is 10.8 min; in series [10], 13.4 min; in series [12] it was 30.8 min; in series [5], 8.59 min; in [6] it was 13.3 min.
Take `Cc1cnc(=O)[nH]c1N` [5-METHYLCYTOSINE]: the LC retention time was 0.9 min in series [4]; 1.06 min in [15]; 16.9 min in series [12]; 2.71 min in [6]; 1.35 min in [7]; 2.21 min in [9].
As for `O=C(O)C(O)C(O)C(O)C(O)COP(=O)(O)O` (stereo unspecified) [6-PHOSPHOGLUCONIC ACID], the LC retention time in series [11] was 1.08 min.
As to `NCCCCN=C(N)N` [AGMATINE], the LC retention time in series [7] is 1.58 min; in series [8] it was 3.67 min; in series [9] it was 1.44 min.
Regarding `CCCCC(CC)COC(=O)c1ccccc1C(=O)OCC(CC)CCCC` (stereo unspecified) [BIS(2-ETHYLHEXYL)PHTHALATE], the LC retention time was 25.4 min in series [1]; 25.5 min in [2]; 26.7 min in series [3]; 32.3 min in series [14]; 30 min in series [4]; 30.4 min in [15]. The LC retention time is 26.4 min in series [5], 30 min in series [6], 26.7 min in series [7] and 30.8 min in series [8].
Take `NCCc1cnc[nH]1` [HISTAMINE]: the LC retention time in series [12] was 4.61 min; in [7], 1.54 min; in [8], 3.13 min; in series [9], 1.44 min.
Turning to `NC(CCSSCCC(N)C(=O)O)C(=O)O` (stereo unspecified) [HOMOCYSTINE], the LC retention time in series [16] was 1.35 min; in series [14], 1.78 min; in series [15] it was 1.09 min; in [12] it was 14 min; in series [5], 0.9 min; in series [17], 1.38 min. Besides, the LC retention time in series [6] was 2.74 min.
Turning to `N[C@@H](Cc1ccccc1)C(=O)O` [L-PHENYLALANINE], the LC retention time in series [1] is 11.8 min; in series [2] it was 12.8 min; in series [13], 15.3 min; in [3], 13.6 min; in series [14], 16.7 min; in series [4], 13.6 min. Besides, the LC retention time in [15] was 14.4 min; in series [10], 17.2 min; in [5] it was 12 min; in [6] it was 17.3 min.
Take `N[C@@H](Cc1ccc(O)cc1)C(=O)O` [L-TYROSINE]: the LC retention time is 24.8 min in [12], 5.83 min in series [7] and 10.2 min in series [8].
Consider `CCC=CCC1C(=O)CCC1CC(=O)OC` (stereo unspecified) [METHYL JASMONATE], for which the LC retention time was 24 min in series [14]; 23.6 min in series [10]; 23.2 min in series [6]; 20.3 min in series [7]; 23.9 min in [8]; 20 min in [9].
As for `Cc1ncc(CO)c(CN)c1O` [PYRIDOXAMINE], the LC retention time in series [12] was 16.2 min; in series [7] it was 1.35 min; in [8], 2.75 min; in [9] it was 1.8 min.
In the case of `c1ccc2ncccc2c1` [QUINOLINE], the LC retention time was 4.84 min in series [12], 11.7 min in series [7] and 16.1 min in series [8].
For the compound `CC=CC=CC(=O)O` [SORBATE], in series [10], the LC retention time is 4.88 min.
Turning to `O=C(O)C=Cc1cnc[nH]1` [UROCANATE], the LC retention time in series [2] is 0.91 min; in series [14] it was 1.8 min; in [4], 0.9 min; in series [15] it was 1.06 min; in [17], 1.36 min; in [6], 2.71 min. In series [9], the LC retention time is 1.39 min.
